Test results from the NIST ThermoML archive (doi:10.1016/j.jct.2003.11.007).

Experiments:
[1] = 101.33 kPa, Liquid
[2] = xn = mol fraction of the nth substance listed; conditions: 101.3 kPa, Liquid

CCOC(=O)OCC [diethyl carbonate]
[1]
Conditions	mass density [kg/m3]
288.15 K	980.29
293.15 K	974.57
298.15 K	969.07
303.15 K	963.6
308.15 K	957.98
318.15 K	947.67
328.15 K	935.12

CCOC(=O)OCC [diethyl carbonate] + CCCCCCCCCCCC
[2]
Conditions	mass density [kg/m3]
288.15 K, x1 = 0.1242	766.85
288.15 K, x1 = 0.2013	776.91
288.15 K, x1 = 0.2481	783.48
288.15 K, x1 = 0.309	792.61
288.15 K, x1 = 0.4053	808.61
288.15 K, x1 = 0.5069	827.83
288.15 K, x1 = 0.603	848.75
288.15 K, x1 = 0.7026	873.85
288.15 K, x1 = 0.8014	903.1
288.15 K, x1 = 0.8997	937.64
288.15 K, x1 = 0.9501	958.03
293.15 K, x1 = 0.1018	760.24
293.15 K, x1 = 0.2018	772.97
293.15 K, x1 = 0.2513	779.88
293.15 K, x1 = 0.3056	787.96
293.15 K, x1 = 0.4094	805.05
293.15 K, x1 = 0.5064	823.29
293.15 K, x1 = 0.604	844.35
293.15 K, x1 = 0.7024	868.92
293.15 K, x1 = 0.8026	898.28
293.15 K, x1 = 0.9022	933.11
293.15 K, x1 = 0.9498	952.23
298.15 K, x1 = 0.1025	756.57
298.15 K, x1 = 0.2042	769.39
298.15 K, x1 = 0.2522	776.01
298.15 K, x1 = 0.3009	783.17
298.15 K, x1 = 0.4041	799.89
298.15 K, x1 = 0.5027	818.2
298.15 K, x1 = 0.6059	840.28
298.15 K, x1 = 0.7074	865.61
298.15 K, x1 = 0.799	892.28
298.15 K, x1 = 0.8994	926.96
298.15 K, x1 = 0.9513	947.6
303.15 K, x1 = 0.1013	752.68
303.15 K, x1 = 0.2027	765.3
303.15 K, x1 = 0.2521	772.06
303.15 K, x1 = 0.3003	779.07
303.15 K, x1 = 0.4041	795.74
303.15 K, x1 = 0.4993	813.2
303.15 K, x1 = 0.605	835.58
303.15 K, x1 = 0.7035	859.82
303.15 K, x1 = 0.7993	887.45
303.15 K, x1 = 0.8999	921.93
303.15 K, x1 = 0.9508	942.05
308.15 K, x1 = 0.1049	749.28
308.15 K, x1 = 0.2059	761.76
308.15 K, x1 = 0.2441	766.93
308.15 K, x1 = 0.3043	775.59
308.15 K, x1 = 0.4026	791.26
308.15 K, x1 = 0.5062	810.2
308.15 K, x1 = 0.6032	830.59
308.15 K, x1 = 0.7045	855.29
308.15 K, x1 = 0.8015	883.09
308.15 K, x1 = 0.9005	916.79
308.15 K, x1 = 0.9507	936.48
318.15 K, x1 = 0.1041	741.75
318.15 K, x1 = 0.1989	753.22
318.15 K, x1 = 0.2492	759.89
318.15 K, x1 = 0.3079	768.25
318.15 K, x1 = 0.4075	783.98
318.15 K, x1 = 0.5	800.6
318.15 K, x1 = 0.6026	821.73
318.15 K, x1 = 0.7001	845.05
318.15 K, x1 = 0.7995	872.99
318.15 K, x1 = 0.8973	905.76
318.15 K, x1 = 0.9485	925.55
328.15 K, x1 = 0.1023	733.88
328.15 K, x1 = 0.2027	745.71
328.15 K, x1 = 0.2498	751.81
328.15 K, x1 = 0.3042	759.33
328.15 K, x1 = 0.3984	773.69
328.15 K, x1 = 0.5099	793.25
328.15 K, x1 = 0.6045	812.43
328.15 K, x1 = 0.7037	835.73
328.15 K, x1 = 0.7992	862.04
328.15 K, x1 = 0.8987	894.71
328.15 K, x1 = 0.9506	914.36

COC(=O)OC [dimethyl carbonate]
[1]
Conditions	mass density [kg/m3]
288.15 K	1076.43
293.15 K	1069.95
298.15 K	1063.26
303.15 K	1056.61
308.15 K	1050.01
318.15 K	1036.65
328.15 K	1022.92

CCCCCCCCCCCC [dodecane]
[1]
Conditions	mass density [kg/m3]
288.15 K	752.44
293.15 K	748.8
298.15 K	745.19
303.15 K	741.57
308.15 K	737.93
318.15 K	730.7
328.15 K	723.32

CCCCCCCCCCCC [dodecane] + COC(=O)OC
[2]
Conditions	mass density [kg/m3]
288.15 K, x2 = 0.1	763.29
288.15 K, x2 = 0.1984	775.97
288.15 K, x2 = 0.2519	783.82
288.15 K, x2 = 0.2998	791.48
288.15 K, x2 = 0.3943	808.72
288.15 K, x2 = 0.9498	1031.65
293.15 K, x2 = 0.0994	759.42
293.15 K, x2 = 0.2008	772.33
293.15 K, x2 = 0.2474	779.08
293.15 K, x2 = 0.2967	786.85
293.15 K, x2 = 0.3962	804.76
293.15 K, x2 = 0.9006	989.35
293.15 K, x2 = 0.9507	1026.33
298.15 K, x2 = 0.1015	755.81
298.15 K, x2 = 0.1968	767.75
298.15 K, x2 = 0.2518	775.63
298.15 K, x2 = 0.3057	784.12
298.15 K, x2 = 0.4019	801.57
298.15 K, x2 = 0.4976	822.41
298.15 K, x2 = 0.5975	849.03
298.15 K, x2 = 0.7026	884.3
298.15 K, x2 = 0.7991	925.9
298.15 K, x2 = 0.9011	984.3
298.15 K, x2 = 0.9512	1020.8
303.15 K, x2 = 0.0995	751.67
303.15 K, x2 = 0.195	763.42
303.15 K, x2 = 0.2498	771.18
303.15 K, x2 = 0.3315	784.26
303.15 K, x2 = 0.3999	796.8
303.15 K, x2 = 0.4997	818.35
303.15 K, x2 = 0.6015	845.3
303.15 K, x2 = 0.6974	876.92
303.15 K, x2 = 0.798	919.35
303.15 K, x2 = 0.8988	976.31
303.15 K, x2 = 0.9497	1012.95
308.15 K, x2 = 0.0998	747.85
308.15 K, x2 = 0.1992	759.93
308.15 K, x2 = 0.2486	766.84
308.15 K, x2 = 0.2938	773.75
308.15 K, x2 = 0.4017	792.74
308.15 K, x2 = 0.5014	814.12
308.15 K, x2 = 0.5995	839.81
308.15 K, x2 = 0.6978	871.92
308.15 K, x2 = 0.7983	914.04
308.15 K, x2 = 0.9004	971.25
308.15 K, x2 = 0.9494	1006.38
318.15 K, x2 = 0.1003	740.31
318.15 K, x2 = 0.2044	752.75
318.15 K, x2 = 0.251	759.14
318.15 K, x2 = 0.3042	767.18
318.15 K, x2 = 0.401	783.99
318.15 K, x2 = 0.4988	804.44
318.15 K, x2 = 0.6028	831.06
318.15 K, x2 = 0.6973	861.26
318.15 K, x2 = 0.8023	904.51
318.15 K, x2 = 0.8976	956.98
318.15 K, x2 = 0.9497	993.69
328.15 K, x2 = 0.0924	731.92
328.15 K, x2 = 0.2	744.23
328.15 K, x2 = 0.25	750.88
328.15 K, x2 = 0.3	758.18
328.15 K, x2 = 0.4007	775.11
328.15 K, x2 = 0.5003	795.39
328.15 K, x2 = 0.6158	824.8
328.15 K, x2 = 0.7057	853.75
328.15 K, x2 = 0.7855	885.61
328.15 K, x2 = 0.8981	945.23
328.15 K, x2 = 0.9483	979.79
